Values joined by “and” are separate entries in the source; they are usually repeats but may differ in a detail not shown here. Equal values may be shown once. “Also recorded” adds a separate entry of the source.
Key:
[1] = target: T1, 5-HT2A (h) (Homo sapiens, UniProt P28223); experiment: CEREP panel; format: binding; conditions: for % inhibition 5-HT2A (h): 10 µM
T1 construct: CEREP (contract assay)

[2] = target: T2, mCB2R (Mus musculus, UniProt P47936); experiment: PathHunter β-arrestin recruitment assay; format: cell-based; conditions: for Emax ± SEM β-AR recruitment mCB2R: normalized to 10 µM CP55940
T2 sequence (P47936 whole entry): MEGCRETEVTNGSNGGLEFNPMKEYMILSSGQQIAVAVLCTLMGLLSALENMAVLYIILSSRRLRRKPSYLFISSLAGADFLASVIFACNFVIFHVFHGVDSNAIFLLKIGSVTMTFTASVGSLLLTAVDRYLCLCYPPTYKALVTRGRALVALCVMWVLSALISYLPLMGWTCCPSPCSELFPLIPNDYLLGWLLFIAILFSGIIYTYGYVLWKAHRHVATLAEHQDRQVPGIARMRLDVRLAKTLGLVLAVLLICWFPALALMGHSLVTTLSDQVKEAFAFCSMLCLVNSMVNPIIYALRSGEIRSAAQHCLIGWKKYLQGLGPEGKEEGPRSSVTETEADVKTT

[3] = target: T2, mCB2R; experiment: Operational analysis of biased signalling; conditions: for ΔLogR GTPγS / ΔLogR cAMP / ΔLogR β-AR: reference CP55940; for RE GTPγS / RE cAMP / RE β-AR: relative effectiveness
[4] = test system: C57BL6/J mice; experiment: Triad assay: catalepsy; format: in vivo, mouse; conditions: for catalepsy, cannabimimetic effect: 1-100 mg kg^−1 i.p., cumulative, mice
[5] = target: T3, A2A (h) (Homo sapiens, UniProt P29274); experiment: CEREP panel; format: binding; conditions: 10 µM
T3 construct: CEREP
T3 sequence (P29274 whole entry): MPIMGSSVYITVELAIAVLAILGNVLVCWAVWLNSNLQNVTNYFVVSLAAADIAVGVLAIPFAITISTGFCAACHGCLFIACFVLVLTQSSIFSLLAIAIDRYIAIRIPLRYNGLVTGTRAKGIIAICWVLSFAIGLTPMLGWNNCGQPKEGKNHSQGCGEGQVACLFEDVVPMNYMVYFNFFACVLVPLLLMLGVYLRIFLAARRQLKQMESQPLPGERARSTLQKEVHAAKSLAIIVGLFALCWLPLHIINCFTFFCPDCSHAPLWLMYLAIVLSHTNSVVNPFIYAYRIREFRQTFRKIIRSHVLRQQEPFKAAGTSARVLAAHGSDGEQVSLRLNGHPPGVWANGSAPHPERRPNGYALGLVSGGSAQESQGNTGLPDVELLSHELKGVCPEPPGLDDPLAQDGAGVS

[6] = test system: BB; experiment: CEREP panel; format: binding; conditions: 10 µM
[7] = target: T4, beta 2 (h) (Homo sapiens, UniProt P07550); experiment: CEREP panel; format: binding; conditions: 10 µM
T4 construct: CEREP
T4 sequence (P07550 whole entry): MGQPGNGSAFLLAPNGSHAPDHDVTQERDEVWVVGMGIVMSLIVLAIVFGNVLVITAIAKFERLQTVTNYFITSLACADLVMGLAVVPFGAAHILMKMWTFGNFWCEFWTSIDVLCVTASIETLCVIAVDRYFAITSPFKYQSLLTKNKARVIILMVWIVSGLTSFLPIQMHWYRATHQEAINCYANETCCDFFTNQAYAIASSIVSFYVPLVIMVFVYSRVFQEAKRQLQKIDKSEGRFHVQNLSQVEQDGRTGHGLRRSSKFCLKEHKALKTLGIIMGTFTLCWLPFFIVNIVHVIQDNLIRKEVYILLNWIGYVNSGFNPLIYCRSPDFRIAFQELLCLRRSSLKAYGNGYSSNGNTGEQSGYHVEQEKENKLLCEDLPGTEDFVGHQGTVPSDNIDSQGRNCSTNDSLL

[8] = target: T5, BZD (peripheral) (Rattus norvegicus, UniProt P16257); experiment: CEREP panel; format: binding; conditions: 10 µM
T5 construct: CEREP
T5 sequence (P16257 whole entry): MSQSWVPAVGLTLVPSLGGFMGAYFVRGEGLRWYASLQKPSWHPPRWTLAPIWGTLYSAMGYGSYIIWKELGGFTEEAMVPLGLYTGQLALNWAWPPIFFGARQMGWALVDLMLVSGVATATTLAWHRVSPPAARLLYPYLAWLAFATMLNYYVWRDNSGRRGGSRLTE

[9] = test system: Ca2+ channel (verapamil site); experiment: CEREP panel; format: binding; conditions: 10 µM
[10] = target: T6, NK1 (h) (Homo sapiens, UniProt P25103); experiment: CEREP panel; format: binding; conditions: 10 µM
T6 construct: CEREP (contract assay)
T6 sequence (P25103 whole entry): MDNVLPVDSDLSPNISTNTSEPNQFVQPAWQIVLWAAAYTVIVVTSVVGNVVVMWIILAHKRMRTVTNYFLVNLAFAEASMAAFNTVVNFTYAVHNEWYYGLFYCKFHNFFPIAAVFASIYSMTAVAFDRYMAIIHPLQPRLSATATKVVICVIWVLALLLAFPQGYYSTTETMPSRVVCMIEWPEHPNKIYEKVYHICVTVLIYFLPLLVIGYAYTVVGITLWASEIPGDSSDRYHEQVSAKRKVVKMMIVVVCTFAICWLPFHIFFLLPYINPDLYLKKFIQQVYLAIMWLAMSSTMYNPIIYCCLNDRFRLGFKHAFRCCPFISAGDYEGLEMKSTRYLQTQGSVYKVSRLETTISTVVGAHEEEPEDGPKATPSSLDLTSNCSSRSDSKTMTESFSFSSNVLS

[11] = target: T7, NTS1 (NT1) (h) (Homo sapiens, UniProt P30989); experiment: CEREP panel; format: binding; conditions: 10 µM
T7 construct: CEREP (contract assay)
T7 sequence (P30989 whole entry): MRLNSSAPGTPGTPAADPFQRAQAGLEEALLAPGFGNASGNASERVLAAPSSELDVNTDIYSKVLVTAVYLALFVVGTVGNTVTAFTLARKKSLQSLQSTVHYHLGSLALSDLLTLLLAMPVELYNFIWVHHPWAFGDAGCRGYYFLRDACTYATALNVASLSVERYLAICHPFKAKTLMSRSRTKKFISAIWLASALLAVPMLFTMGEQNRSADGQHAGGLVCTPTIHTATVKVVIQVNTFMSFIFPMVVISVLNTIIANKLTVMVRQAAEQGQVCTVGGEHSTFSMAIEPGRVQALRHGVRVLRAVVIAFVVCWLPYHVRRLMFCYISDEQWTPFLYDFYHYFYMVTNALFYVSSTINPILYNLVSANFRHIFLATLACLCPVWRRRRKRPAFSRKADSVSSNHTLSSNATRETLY

[12] = test system: P2X; experiment: CEREP panel; format: binding; conditions: 10 µM
[13] = target: T8, D1 (h) (Homo sapiens, UniProt P21728); experiment: CEREP panel; format: binding; conditions: for % inhibition D1 (h): 10 µM
T8 construct: CEREP (contract assay)
T8 sequence (P21728 whole entry): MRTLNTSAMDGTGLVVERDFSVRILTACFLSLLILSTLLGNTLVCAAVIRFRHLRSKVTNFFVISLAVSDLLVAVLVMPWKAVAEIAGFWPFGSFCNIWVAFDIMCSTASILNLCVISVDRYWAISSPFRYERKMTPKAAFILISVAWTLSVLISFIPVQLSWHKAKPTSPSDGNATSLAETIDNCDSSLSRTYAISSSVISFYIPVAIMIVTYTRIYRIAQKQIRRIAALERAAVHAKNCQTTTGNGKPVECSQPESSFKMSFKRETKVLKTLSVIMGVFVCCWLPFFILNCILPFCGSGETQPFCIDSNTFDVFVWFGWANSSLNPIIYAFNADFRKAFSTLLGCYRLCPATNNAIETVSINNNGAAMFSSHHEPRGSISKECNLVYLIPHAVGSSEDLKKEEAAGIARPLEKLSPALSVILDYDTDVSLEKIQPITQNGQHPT

[14] = target: T9, FP (h) (Homo sapiens, UniProt P43088); experiment: CEREP panel; format: binding; conditions: for % inhibition FP (h): 10 µM
T9 construct: CEREP (contract assay)
T9 sequence (P43088 whole entry): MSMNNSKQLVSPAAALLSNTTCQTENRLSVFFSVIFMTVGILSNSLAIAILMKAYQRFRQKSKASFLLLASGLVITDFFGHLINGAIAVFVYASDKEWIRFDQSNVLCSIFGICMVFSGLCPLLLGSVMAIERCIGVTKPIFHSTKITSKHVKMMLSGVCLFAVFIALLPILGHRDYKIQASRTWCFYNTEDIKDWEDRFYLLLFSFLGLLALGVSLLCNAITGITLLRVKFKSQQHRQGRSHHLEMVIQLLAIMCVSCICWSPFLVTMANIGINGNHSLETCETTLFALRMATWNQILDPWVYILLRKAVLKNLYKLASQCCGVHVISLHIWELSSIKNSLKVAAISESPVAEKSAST

[15] = target: T10, 5-HT1A (h) (Homo sapiens, UniProt P08908); experiment: CEREP panel; format: binding
T10 construct: CEREP (contract assay)
T10 sequence (P08908 whole entry): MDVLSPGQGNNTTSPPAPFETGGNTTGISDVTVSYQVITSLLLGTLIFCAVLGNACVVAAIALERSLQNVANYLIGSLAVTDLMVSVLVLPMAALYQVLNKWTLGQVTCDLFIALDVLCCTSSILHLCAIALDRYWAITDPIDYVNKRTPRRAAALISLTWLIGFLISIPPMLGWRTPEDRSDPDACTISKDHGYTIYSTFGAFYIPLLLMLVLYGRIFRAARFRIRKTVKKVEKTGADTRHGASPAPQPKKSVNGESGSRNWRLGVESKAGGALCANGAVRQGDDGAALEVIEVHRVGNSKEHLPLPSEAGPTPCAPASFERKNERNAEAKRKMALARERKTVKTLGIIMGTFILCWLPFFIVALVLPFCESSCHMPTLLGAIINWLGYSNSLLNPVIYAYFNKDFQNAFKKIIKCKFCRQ

[16] = target: T11, M4 (h) (Homo sapiens, UniProt P08173); experiment: CEREP panel; format: binding
T11 construct: CEREP (contract assay)
T11 sequence (P08173 whole entry): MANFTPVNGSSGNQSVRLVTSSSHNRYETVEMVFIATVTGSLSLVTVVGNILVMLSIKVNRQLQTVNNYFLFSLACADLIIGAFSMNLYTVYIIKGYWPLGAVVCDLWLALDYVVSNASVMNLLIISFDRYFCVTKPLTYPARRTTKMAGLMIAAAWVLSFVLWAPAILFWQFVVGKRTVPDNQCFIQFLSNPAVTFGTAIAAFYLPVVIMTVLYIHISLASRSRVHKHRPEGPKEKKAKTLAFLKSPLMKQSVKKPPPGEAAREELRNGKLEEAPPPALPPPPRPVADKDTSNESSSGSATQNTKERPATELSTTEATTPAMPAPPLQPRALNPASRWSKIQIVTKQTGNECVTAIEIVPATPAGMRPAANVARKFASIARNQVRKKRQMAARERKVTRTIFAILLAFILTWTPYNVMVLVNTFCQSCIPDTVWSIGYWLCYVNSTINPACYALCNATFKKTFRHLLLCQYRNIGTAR

[17] = phosphate buffer pH 6.5, from DMSO stock
[18] = in vitro; conditions: both, human, microsomes, pH 7.4
[19] = target: T12, COX2 (h) (Homo sapiens, UniProt P35354); experiment: CEREP panel, enzyme and cell-based assays; format: biochemical; conditions: 10 µM
T12 construct: CEREP (contract assay)
T12 sequence (P35354 18-604): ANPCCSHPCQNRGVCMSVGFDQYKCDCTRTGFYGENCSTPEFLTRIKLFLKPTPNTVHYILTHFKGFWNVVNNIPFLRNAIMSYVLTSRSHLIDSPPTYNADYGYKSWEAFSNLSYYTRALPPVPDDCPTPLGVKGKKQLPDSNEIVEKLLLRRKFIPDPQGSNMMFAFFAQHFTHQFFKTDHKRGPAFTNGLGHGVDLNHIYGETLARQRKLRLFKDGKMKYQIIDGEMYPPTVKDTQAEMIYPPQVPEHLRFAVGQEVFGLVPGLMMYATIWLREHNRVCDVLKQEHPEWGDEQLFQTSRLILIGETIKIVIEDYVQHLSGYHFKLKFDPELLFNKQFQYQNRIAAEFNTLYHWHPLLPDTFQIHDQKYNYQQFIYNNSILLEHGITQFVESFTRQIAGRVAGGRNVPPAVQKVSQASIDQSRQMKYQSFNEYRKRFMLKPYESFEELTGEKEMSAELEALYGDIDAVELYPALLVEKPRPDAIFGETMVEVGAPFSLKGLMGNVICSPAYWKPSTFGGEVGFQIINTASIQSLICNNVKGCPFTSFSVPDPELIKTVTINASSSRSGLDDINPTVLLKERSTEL

[20] = test system: Cl- channel (GABA-gated); experiment: CEREP panel; format: binding; conditions: 10 µM
[21] = Pharmacokinetics, oral administration in mice; format: in vivo, mouse; conditions: p.o.
[22] = not given; remark: listed apart in the source
[23] = target: T13, H3 (h) (Homo sapiens, UniProt Q9Y5N1); experiment: CEREP panel; format: binding; conditions: 10 µM
T13 construct: CEREP (contract assay)

[24] = physchem; conditions: pH 6.5, aqueous buffer, thermodynamic from solid

T1 sequence (P28223 whole entry): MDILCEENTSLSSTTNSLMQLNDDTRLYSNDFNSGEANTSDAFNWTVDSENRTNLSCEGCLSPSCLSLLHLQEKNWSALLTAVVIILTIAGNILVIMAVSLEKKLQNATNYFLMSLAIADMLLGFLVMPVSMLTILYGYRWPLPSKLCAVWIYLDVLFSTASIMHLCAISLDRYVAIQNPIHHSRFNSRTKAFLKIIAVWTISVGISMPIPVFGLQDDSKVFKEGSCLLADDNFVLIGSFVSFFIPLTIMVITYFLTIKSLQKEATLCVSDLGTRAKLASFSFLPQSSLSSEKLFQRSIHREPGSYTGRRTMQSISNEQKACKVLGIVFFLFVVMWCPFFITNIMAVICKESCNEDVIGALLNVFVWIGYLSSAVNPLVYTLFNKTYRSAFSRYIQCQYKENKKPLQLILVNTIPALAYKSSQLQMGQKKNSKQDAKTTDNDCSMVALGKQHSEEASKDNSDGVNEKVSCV

CCCn1c(C)c(C(=O)c2cccc3ccccc23)c2ccccc21 [JWH015]
% inhibition 5-HT2A (h) [1]: 56%

CCCC(C)(C)c1ccc2c(c1)OC(C)(C)[C@@H]1CC=C(C)C[C@@H]21 [JWH133]
pEC50 ± SEM β-AR recruitment mCB2R [2]: 6.80 ± 0.17 | Emax ± SEM β-AR recruitment mCB2R [2]: 63 ± 7% | GTPγS-cAMP bias factor (BF) [3]: 50.9 | GTPγS-cAMP ΔΔlogR [3]: 1.71 ± 0.18 | LogR GTPγS [3]: 7.07 ± 0.05 | LogR cAMP [3]: 8.07 ± 0.09 | LogR β-AR [3]: 6.57 ± 0.12 | β-AR-GTPγS bias factor (BF) [3]: 0.21 | β-AR-GTPγS ΔΔlogR [3]: -0.67 ± 0.15 | β-AR-cAMP bias factor (BF) [3]: 10.9 | β-AR-cAMP ΔΔlogR [3]: 1.04 ± 0.21 | ΔLogR GTPγS [3]: -0.75 ± 0.07 | ΔLogR cAMP [3]: -2.45 ± 0.17 | ΔLogR β-AR [3]: -1.42 ± 0.13 | RE GTPγS [3]: 0.18 | RE cAMP [3]: 0.004 | RE β-AR [3]: 0.04 | catalepsy, cannabimimetic effect [4]: did not produce detectable; also recorded: lacked appreciable pharmacological effects | % inhibition A2A (h) [5]: 4% | % inhibition BB [6]: 0% | % inhibition beta 2 (h) [7]: -15% | % inhibition BZD (peripheral) [8]: -1% | % inhibition Ca2+ channel (verapamil site) [9]: 1% | % inhibition NK1 (h) [10]: 13% | % inhibition NTS1 (NT1) (h) [11]: 0% | % inhibition P2X [12]: -5%

CCCCCCC(C)(C)c1ccc([C@@H]2C[C@H](O)CC[C@H]2CCCO)c(O)c1 [CP55940]
EC50 [2]: 9.55 nM | Emax ([2]; read-out: Emax ± SEM β-AR recruitment mCB2R): 96 ± 1% | GTPγS-cAMP bias factor (BF) [3]: 1 | GTPγS-cAMP ΔΔlogR [3]: 0 ± 0.21 | LogR GTPγS [3]: 7.82 ± 0.05 | LogR cAMP [3]: 10.52 ± 0.14 | LogR β-AR [3]: 8.0 ± 0.06 | β-AR-GTPγS bias factor (BF) [3]: 1 | β-AR-GTPγS ΔΔlogR [3]: 0 ± 0.10 | β-AR-cAMP bias factor (BF) [3]: 1 | β-AR-cAMP ΔΔlogR [3]: 0 ± 0.21 | ΔLogR GTPγS [3]: 0 ± 0.07 | ΔLogR cAMP [3]: 0 ± 0.20 | ΔLogR β-AR [3]: 0 ± 0.08 | RE GTPγS [3]: 1.00 | RE cAMP [3]: 1.00 | RE β-AR [3]: 1.00 | inhibition at 10 µM [13]: 77% | inhibition at 10 µM [14]: 100% | inhibition at 10 µM [15]: 92% | inhibition at 10 µM [1]: 95% | inhibition at 10 µM [16]: 55% | Kinetic solubility [17]: soluble | microsomal CLint [18]: 80 µL/min/mg

COc1ccc(C(=O)c2c(C)n(CCN3CCOCC3)c3cc(I)ccc23)cc1 [AM630]
% inhibition beta 2 (h) [7]: 11% | % inhibition FP (h) [14]: 66% | % inhibition 5-HT2A (h) [1]: 70% | % inhibition COX2 (h) [19]: 96% | % inhibition Cl- channel (GABA-gated) [20]: 87% | Plasma protein binding mouse: 0.4 %free

Cc1ccc2c(c1)Cc1c(C(=O)NN3CCCCC3)nn(-c3ccc(Cl)cc3Cl)c1-2 [Gp-1a]
% inhibition D1 (h) [13]: 63% | % inhibition FP (h) [14]: 88%

CCCCCCC(C)(C)c1cc(OC)c(C2=C[C@H]3CC[C@]2(CO)C3(C)C)c(OC)c1 [HU910]
pEC50 ± SEM β-AR recruitment mCB2R [2]: 6.78 ± 0.16 | Emax ± SEM β-AR recruitment mCB2R [2]: 66 ± 1% | GTPγS-cAMP bias factor (BF) [3]: 23.6 | GTPγS-cAMP ΔΔlogR [3]: 1.37 ± 0.24 | LogR GTPγS [3]: 7.15 ± 0.07 | LogR cAMP [3]: 8.48 ± 0.18 | LogR β-AR [3]: 6.57 ± 0.11 | β-AR-GTPγS bias factor (BF) [3]: 0.18 | β-AR-GTPγS ΔΔlogR [3]: -0.75 ± 0.15 | β-AR-cAMP bias factor (BF) [3]: 4.2 | β-AR-cAMP ΔΔlogR [3]: 0.63 ± 0.26 | ΔLogR GTPγS [3]: -0.67 ± 0.08 | ΔLogR cAMP [3]: -2.04 ± 0.23 | ΔLogR β-AR [3]: -1.41 ± 0.12 | RE GTPγS [3]: 0.22 | RE cAMP [3]: 0.009 | RE β-AR [3]: 0.04 | AUCinf [21]: 904 ng·h/mL | AUCinf/dose [21]: 301 kg·ng·h/mL/mg | AUClast [21]: 895 ng·h/mL | Cmax [21]: 495 ng/mL | T1/2 [21]: 5.2 h | Tmax [21]: 1.0 h | catalepsy, cannabimimetic effect [4]: did not produce detectable; also recorded: lacked appreciable pharmacological effects | antagonism of HU210-induced catalepsy ([4]; pretreatment (SR141716A 3 mg kg^−1, HU910 30 mg kg^−1) before HU210 1.7 mg kg^−1): did not significantly reduce | % inhibition A2A (h) [5]: 50% | % inhibition BB [6]: 18% | % inhibition beta 2 (h) [7]: -5% | % inhibition BZD (peripheral) [8]: -11% | % inhibition Ca2+ channel (verapamil site) [9]: 7% | % inhibition NK1 (h) [10]: 42% | % inhibition NTS1 (NT1) (h) [11]: -19% | % inhibition P2X [12]: -10% | Plasma protein binding human [22]: 1.8 %free | Plasma protein binding mouse: 4.1 %free

Cc1c(C(=O)c2cccc3ccccc23)c2cccc3c2n1[C@H](CN1CCOCC1)CO3 [WIN55212-2]
% inhibition FP (h) [14]: 81% | % inhibition COX2 (h) [19]: 50% | Plasma protein binding mouse: 1.0 %free

CN1CCCC[C@H]1Cn1cc(C(=O)c2cc([N+](=O)[O-])ccc2I)c2ccccc21 [(S)-AM1241]
% inhibition 5-HT1A (h) ([15]; 10 µM): 74% | % inhibition 5-HT2A (h) [1]: 67% | % inhibition M4 (h) ([16]; 10 µM): 74% | % inhibition H3 (h) [23]: 87% | Plasma protein binding human [22]: 0.5 %free | Plasma protein binding mouse: 1.2 %free

CCCCC/C=C\C/C=C\C/C=C\C/C=C\CCCC(=O)OC(CO)CO [2-AG, 2-arachidonoyl glycerol]
solubility kinetic [24]: < 0.5 µg/mL and < 1.3 µM | microsomal CLint [18]: 13 µL/min/mg

Cc1c(C(=O)NN2CCCCC2)nn(-c2ccc(Cl)cc2Cl)c1-c1ccc(I)cc1 [AM251]
% inhibition D1 (h) [13]: 58% | % inhibition FP (h) [14]: 94%

CCCCC/C=C\C/C=C\C/C=C\C/C=C\CCCC(=O)NCCO [Anandamide, N-arachidonoylethanolamine]
solubility kinetic [24]: < 1.1 µg/mL and < 3.2 µM | microsomal CLint [18]: 47 µL/min/mg

From publication PMC5216056 (Nature Communications, 2017)
